ChEMBL document CHEMBL4354881, “Optimization of Potent ATAD2 and CECR2 Bromodomain Inhibitors with an Atypical Binding Mode” (J Med Chem, 2020)
pIC50, pKd: −log10 of the molar value.

Experiments:
[1] = Permeability of the compound by artificial lipid membrane-based method; assay type: ADME; conditions: not told; read-out: permeability
[2] = molecular target: T1, Chromatin remodeling regulator CECR2 (Homo sapiens, UniProt Q9BXF3); experiment: Binding affinity to human partial length CECR2 (P423 to D543 residues) expressed in bacterial expression system by BROMOscan assay
T1 sequence (Q9BXF3 whole entry, the tested form may be a part): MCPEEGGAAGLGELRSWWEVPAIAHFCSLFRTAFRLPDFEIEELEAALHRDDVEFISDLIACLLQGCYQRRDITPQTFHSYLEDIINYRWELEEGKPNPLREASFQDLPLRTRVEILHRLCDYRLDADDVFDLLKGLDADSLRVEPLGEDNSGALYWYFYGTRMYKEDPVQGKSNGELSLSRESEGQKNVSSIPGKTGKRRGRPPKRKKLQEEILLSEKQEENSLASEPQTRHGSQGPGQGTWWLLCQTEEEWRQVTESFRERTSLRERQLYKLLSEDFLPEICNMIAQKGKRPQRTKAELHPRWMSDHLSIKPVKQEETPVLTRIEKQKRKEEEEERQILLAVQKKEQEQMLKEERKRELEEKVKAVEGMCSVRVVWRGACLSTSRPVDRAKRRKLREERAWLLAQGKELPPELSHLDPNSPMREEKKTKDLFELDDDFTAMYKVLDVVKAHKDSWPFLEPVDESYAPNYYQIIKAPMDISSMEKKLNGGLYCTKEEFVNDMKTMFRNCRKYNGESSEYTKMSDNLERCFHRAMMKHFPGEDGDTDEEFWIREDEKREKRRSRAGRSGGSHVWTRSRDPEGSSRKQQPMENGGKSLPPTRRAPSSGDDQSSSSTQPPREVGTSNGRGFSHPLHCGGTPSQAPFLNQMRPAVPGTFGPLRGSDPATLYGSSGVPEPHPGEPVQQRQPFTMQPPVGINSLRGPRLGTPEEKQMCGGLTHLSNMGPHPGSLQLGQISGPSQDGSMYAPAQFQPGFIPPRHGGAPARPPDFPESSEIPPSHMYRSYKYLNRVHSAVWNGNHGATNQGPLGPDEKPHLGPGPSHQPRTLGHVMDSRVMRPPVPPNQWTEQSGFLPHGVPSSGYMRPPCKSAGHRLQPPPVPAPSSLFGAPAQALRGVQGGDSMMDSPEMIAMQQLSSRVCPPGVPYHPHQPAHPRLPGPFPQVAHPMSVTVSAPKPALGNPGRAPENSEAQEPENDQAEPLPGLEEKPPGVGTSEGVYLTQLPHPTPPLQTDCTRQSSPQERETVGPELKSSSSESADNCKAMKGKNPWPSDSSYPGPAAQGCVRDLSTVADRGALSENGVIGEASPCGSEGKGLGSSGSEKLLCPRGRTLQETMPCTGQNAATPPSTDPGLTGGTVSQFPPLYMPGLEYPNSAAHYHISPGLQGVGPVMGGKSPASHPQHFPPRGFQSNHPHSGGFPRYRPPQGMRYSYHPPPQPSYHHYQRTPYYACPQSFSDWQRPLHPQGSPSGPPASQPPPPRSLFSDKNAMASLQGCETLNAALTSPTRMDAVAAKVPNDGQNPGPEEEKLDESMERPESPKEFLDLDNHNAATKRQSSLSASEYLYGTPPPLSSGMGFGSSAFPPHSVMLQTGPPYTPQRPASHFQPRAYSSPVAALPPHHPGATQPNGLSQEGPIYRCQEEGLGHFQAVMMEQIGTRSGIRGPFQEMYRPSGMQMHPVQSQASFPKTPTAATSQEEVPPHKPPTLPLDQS

[3] = molecular target: T2, Bromodomain and PHD finger-containing protein 3 (Homo sapiens, UniProt Q9ULD4); experiment: Binding affinity to human partial length BRPF3 (E588 to G701 residues) expressed in bacterial expression system by BROMOscan assay
T2 sequence (Q9ULD4 whole entry): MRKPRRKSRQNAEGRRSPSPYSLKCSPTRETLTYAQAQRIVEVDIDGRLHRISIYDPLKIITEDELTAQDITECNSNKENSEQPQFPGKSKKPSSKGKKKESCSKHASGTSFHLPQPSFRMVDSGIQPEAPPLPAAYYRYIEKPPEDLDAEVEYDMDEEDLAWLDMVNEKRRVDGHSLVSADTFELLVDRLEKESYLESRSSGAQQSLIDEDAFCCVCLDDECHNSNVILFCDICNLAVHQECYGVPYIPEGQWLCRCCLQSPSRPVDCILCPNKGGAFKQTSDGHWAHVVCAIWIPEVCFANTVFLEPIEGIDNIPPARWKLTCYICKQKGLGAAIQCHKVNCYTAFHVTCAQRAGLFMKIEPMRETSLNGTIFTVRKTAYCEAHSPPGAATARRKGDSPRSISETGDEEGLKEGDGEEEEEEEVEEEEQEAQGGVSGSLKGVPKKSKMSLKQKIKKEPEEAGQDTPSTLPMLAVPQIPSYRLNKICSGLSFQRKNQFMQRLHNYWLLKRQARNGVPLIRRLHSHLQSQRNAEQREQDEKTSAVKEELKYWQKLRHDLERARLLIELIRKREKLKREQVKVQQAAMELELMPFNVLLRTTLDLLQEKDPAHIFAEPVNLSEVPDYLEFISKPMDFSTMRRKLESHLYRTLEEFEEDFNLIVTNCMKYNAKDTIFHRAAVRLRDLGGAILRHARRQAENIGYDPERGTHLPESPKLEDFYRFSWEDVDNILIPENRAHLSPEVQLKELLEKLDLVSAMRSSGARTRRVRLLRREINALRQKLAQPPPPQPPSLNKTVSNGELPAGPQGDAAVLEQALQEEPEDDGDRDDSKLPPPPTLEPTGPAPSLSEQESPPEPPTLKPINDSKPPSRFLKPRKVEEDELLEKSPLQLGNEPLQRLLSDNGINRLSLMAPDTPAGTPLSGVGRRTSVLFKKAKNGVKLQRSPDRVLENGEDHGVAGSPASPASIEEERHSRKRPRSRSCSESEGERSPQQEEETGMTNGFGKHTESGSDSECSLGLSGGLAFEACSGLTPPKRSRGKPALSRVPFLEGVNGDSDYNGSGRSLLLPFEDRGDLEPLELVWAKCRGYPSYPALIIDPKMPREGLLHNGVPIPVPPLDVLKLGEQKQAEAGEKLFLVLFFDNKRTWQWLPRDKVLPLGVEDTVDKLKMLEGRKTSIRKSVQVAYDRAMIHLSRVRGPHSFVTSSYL

[4] = molecular target: T1, Chromatin remodeling regulator CECR2; experiment: Displacement of Alexa Fluor 647-labeled GSK tracer from FLAG-6His-Tev-fused CECR2 (424 to 543 residue) (unknown origin) measured after 15 mins by TR-FRET assay
[5] = molecular target: T3, ATPase family AAA domain-containing protein 2 (Homo sapiens, UniProt Q6PL18); experiment: Binding affinity to human partial length ATAD2A (Q981 to R1108 residues) expressed in bacterial expression system by BROMOscan assay
T3 sequence (Q6PL18 whole entry): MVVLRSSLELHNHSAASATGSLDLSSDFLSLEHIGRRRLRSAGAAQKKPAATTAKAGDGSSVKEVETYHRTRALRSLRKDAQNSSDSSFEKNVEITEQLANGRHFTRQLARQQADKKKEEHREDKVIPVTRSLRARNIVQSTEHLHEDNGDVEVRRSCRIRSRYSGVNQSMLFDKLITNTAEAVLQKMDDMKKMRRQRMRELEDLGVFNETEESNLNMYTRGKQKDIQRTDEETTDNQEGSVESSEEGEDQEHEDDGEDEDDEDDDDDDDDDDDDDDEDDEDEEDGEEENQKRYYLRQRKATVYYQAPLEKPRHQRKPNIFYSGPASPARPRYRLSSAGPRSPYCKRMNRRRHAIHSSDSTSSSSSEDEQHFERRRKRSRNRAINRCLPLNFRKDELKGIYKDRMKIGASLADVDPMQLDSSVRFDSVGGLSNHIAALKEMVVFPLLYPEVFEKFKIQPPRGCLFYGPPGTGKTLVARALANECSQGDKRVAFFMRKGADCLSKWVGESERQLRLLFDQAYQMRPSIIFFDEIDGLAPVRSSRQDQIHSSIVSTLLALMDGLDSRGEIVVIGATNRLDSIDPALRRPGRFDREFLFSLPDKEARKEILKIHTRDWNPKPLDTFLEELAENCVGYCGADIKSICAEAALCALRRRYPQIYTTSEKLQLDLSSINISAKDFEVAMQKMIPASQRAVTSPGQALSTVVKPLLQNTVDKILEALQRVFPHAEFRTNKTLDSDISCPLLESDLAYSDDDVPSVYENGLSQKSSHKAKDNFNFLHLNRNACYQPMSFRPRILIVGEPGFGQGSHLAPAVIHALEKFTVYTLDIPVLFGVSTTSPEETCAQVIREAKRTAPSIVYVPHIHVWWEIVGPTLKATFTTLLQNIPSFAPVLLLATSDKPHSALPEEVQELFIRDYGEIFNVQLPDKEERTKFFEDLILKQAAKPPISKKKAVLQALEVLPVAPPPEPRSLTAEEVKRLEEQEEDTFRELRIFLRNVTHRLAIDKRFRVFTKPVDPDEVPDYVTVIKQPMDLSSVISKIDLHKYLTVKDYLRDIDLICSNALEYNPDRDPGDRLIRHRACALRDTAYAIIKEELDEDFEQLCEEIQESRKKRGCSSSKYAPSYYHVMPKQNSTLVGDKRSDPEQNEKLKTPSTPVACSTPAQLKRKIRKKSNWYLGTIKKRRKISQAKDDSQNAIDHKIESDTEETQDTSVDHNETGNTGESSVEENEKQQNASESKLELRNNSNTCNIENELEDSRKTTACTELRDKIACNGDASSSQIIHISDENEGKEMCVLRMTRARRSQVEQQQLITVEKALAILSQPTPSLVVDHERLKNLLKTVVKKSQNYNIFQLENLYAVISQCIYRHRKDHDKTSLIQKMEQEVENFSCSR

C[C@H]1CCN(S(=O)(=O)c2cc(NC(=O)CN3C(=O)N[C@@](C)(C4CC4)C3=O)ccc2Br)C1
Papp [1]: 99 nm/s | pKd [2]: 7.60 | pKd [3]: 6.90 | pIC50 [4]: 6.50 | pKd [5]: 8.00
